Literature values as cited in patent US9250230B2, “Using induced pluripotent stem cells for screening anti-neoplastic agents” (priority 2011, dated 2016).

Key:
iPS reprogramming = iPS reprogramming of somatic cells
[1] = test system: chemical reprogramming to CiPSCs; conditions: TTNPB added to small-molecule reprogramming

Compound	effect on reprogramming efficiency (iPS reprogramming)	enhancement of reprogramming efficiency of chemical reprogramming [1]
O=CC[C@@H](O)[C@H](O)[C@H](O)CO [2-DG, 2-deoxy-D-glucose]	inhibited the reprogramming efficiency	
O=C(CO)[C@@H](O)[C@H](O)[C@H](O)COP(=O)(O)O [F6P, D-fructose-6-phosphate]	increased reprogramming efficiency	
C/C(=C\c1ccc(C(=O)O)cc1)c1ccc2c(c1)C(C)(C)CCC2(C)C [TTNPB]		up to 40 fold
